Test results as given in patent publication US11642343B2, “Methods of treating splenomegaly” (Telios Pharma, Inc., priority 2020, dated 2023).

Tests used:
MV-411 cells = assay: Fibronectin release: detachment of cells from fibronectin-coated plates; type: cell-based; settings: MV-411 cells on fibronectin-coated plates; 1, 2, or 5 μm for two hours at 37° C.; CellTiter Glo; FIG. 2
Description: Fibronectin is an important component of the microenvironment extracellular matrix and attaches to cells through VLA-4 (integrin α4β1). Detachment of cells from fibronectin after exposure to Compound No. 128 was assessed by plating 1×10^6 MV-411 cells on fibronectin-coated plates (3 replicates). The cells were allowed to adhere overnight at 37° C. and then unadhered cells were washed away. Next, attached cells were treated with DMSO or Compound No. 128 (1, 2, or 5 μm) for two hours at 37° C. Detached cells were then collected and cell numbers determined using CellTiter Glo.

[1] = tested on: CD11a (LFA-1), CD62L (L-selectin), and CD49d (VLA-4); type: in vivo, human; settings: monocytes from blood of treated COVID-19 patients; FIG. 3
stimulated whole blood = assay: In vitro cytokine production in stimulated whole blood; type: cell-based; settings: 24 hour incubation, FIG. 4
Description: The impact on in vitro cytokine production after exposure to Compound No. 128 was assessed in stimulated whole blood following a 24 hour incubation.

BTK [2] = molecular target: T1, BTK (Homo sapiens, UniProt Q06187); assay: Inhibition of BTK phosphorylation (activation) in healthy B-cells; type: cell-based; parameters: endogenous in cells; settings: healthy PBMC incubated two hours with 10 minutes of αIgM and H2O2 stimulation
T1 sequence (Q06187 whole entry): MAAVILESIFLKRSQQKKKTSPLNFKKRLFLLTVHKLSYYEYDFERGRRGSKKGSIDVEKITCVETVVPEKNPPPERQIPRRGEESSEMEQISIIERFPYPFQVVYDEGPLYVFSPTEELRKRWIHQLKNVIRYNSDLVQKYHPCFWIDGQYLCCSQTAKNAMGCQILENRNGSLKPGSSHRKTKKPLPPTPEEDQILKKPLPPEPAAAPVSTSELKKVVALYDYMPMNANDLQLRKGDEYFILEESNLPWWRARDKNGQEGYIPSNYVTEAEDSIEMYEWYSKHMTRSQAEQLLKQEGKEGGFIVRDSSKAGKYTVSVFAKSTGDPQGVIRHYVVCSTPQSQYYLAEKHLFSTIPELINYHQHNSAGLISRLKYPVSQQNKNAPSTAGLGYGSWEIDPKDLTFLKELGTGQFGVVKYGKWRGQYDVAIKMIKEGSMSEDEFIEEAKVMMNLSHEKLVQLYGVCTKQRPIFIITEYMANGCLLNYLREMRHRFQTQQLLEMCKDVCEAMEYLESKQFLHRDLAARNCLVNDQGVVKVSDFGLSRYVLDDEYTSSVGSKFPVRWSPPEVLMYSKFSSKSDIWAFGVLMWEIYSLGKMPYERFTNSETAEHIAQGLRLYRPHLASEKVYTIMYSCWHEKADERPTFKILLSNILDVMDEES
Description: (§1) Inhibition of BTK phosphorylation (activation) by Compound No. 128 (1-(4-(((6-amino-5-(4-phenoxyphenyl)pyrimidin-4-yl)amino)methyl)-4-fluoropiperidin-1-yl)prop-2-en-1-one) was assessed in healthy B-cells and in myeloid cell lines MOLM-13 basal and Hel-92 basal. Compound No. 128 was incubated with the myeloid cells lines for two hours with no stimulation and with healthy PBMC5 for two hours with 10 minutes of αIgM and H2O2 stimulation.

BTK [3] = molecular target: T1, BTK; assay: Inhibition of BTK phosphorylation (activation) in myeloid cell line MOLM-13 basal; type: cell-based; parameters: endogenous in cells; host or cells: MOLM-13; settings: incubated two hours with no stimulation
Description: as §1

BTK [4] = molecular target: T1, BTK; assay: Inhibition of BTK phosphorylation (activation) in myeloid cell line Hel-92 basal; type: cell-based; parameters: endogenous in cells; host or cells: MOLM-13; settings: incubated two hours with no stimulation
Description: as §1

Hel-92 (V617F mut) cells = assay: In vitro inhibition of cell migration towards SDF-1 (CXCL12) through a permeable membrane; settings: FIG. 1A and 1B

For `C=CC(=O)N1CCC(F)(CNc2ncnc(N)c2-c2ccc(Oc3ccccc3)cc2)CC1` [Compound No. 128, 1-(4-(((6-amino-5-(4-phenoxyphenyl)pyrimidin-4-yl)amino)methyl)-4-fluoropiperidin-1-yl)prop-2-en-1-one], the “detachment of cells from fibronectin” value (MV-411 cells) was “cells detached from fibronectin”, the “levels of surface molecules CD11a (LFA-1), CD62L (L-selectin), CD49d (VLA-4)” value [1] was “reduced levels of surface molecules in some patients” and the “cytokine and chemokine production” value (stimulated whole blood) was “decreased cytokine and chemokine production upon cellular stimulation”. For the same compound, the EC50 (BTK [2]) was 16.9 nM, the EC50 (BTK [3]) was 21.4 nM and the EC50 (BTK [4]) was 19.7 nM. For the same compound, the “inhibition of cell migration towards SDF-1” value (Hel-92 (V617F mut) cells) was “inhibit cell migration towards SDF-1”.
